# Experimental data published in ChEMBL document CHEMBL3507680, “University of Dundee, Gates Library screen for HepG2 cell viability”.
# Experiment: Human HepG2 cell viability assay in 384 well format
# Assay type: toxicity, cell-based
# Parameters: dose 125 nL, time 70.5 hour; concentration not given beside the values
# Details: HepG2 cells, read-out: Inhibition
row,SMILES,cytotoxicity at 70.5 h [%]
1,CN1CCOC(CNC(=O)Cc2coc(-c3ccccc3)n2)C1 (configuration not stated),-13.1
2,OC(CN1CCC(c2ccn[nH]2)CC1)c1ccc(F)cc1F (configuration not stated),-5.74
3,CN(Cc1ccncc1)C(=O)NCc1nnc2n1CCCCC2,22.9
4,CN(Cc1ccc(O)cc1)C(=O)NCc1nnc2n1CCCCC2,-2.24
5,CCN(CC1CCCO1)C(=O)Nc1ccc(OC)c(C)c1 (configuration not stated),-8.02
6,O=C(c1ccc(-n2cnnn2)cc1)N1CCCC(n2ccnc2)C1 (configuration not stated),-6.98
7,CC(C)c1n[nH]c(C(=O)Nc2ccccn2)c1Br,12.4
8,CN(Cc1ccc(N(C)C)cc1)C(=O)NCc1nnc2n1CCC2,-5.5
9,Cc1cccc(NC2CCN(C(=O)Nc3ccc(F)c(F)c3)CC2)n1,-4.64
10,Cc1cnn(CC2CCCN2C(=O)c2cccc(S(C)(=O)=O)c2)c1 (configuration not stated),-2.98
11,Cc1cnn(CC2CCCN2C(=O)c2cccc(-n3ccc(C)n3)c2)c1 (configuration not stated),-7.87
12,Cc1cccc(NC2CCN(C(=O)Nc3ccccn3)CC2)n1,2.1
13,CCN1CCOC(CNCc2cccc(OCc3ccccn3)c2)C1 (configuration not stated),-6.84
14,O=C(CCc1cccc(F)c1F)N1CCCC(n2cncn2)C1 (configuration not stated),-6.22
15,CN(Cc1ccc(F)cc1)C(=O)NCc1nnc2n1CCC2,-10.4
16,Cc1nccn1CC1CCCN1S(=O)(=O)Cc1cccc(F)c1 (configuration not stated),18.7
17,Fc1cccc(-c2nc(CN3CCCC3Cn3cncn3)co2)c1 (configuration not stated),8.65
18,Cc1nccn1CC1CCCN1S(=O)(=O)Cc1cccc(C#N)c1 (configuration not stated),29.1
19,Fc1ccc(-c2nc(CN3CCCC3Cn3cncn3)co2)cc1 (configuration not stated),17.6
20,CC(C)(C)c1nc(CN2CCC(c3ccnn3CCO)CC2)no1,-0.084
21,c1ccc(-c2cnc(CN3CCCC3Cn3cccn3)o2)cc1 (configuration not stated),1.69
22,COc1ccc(-c2cnc(CN3CCCC3Cn3cccn3)o2)cc1 (configuration not stated),-7.48
23,Cc1nc(C2CCCN(C(=O)c3c[nH]c(C(C)C)n3)C2)no1 (configuration not stated),-2.72
24,c1ccc(-c2nc(CN3CCCCC3Cn3cncn3)co2)cc1 (configuration not stated),-0.916

row,SMILES,cytotoxicity at 70.5 h [%]
1,NC(=O)C1CCN(C(=O)CCCc2nnc(-c3ccccc3)o2)CC1,-10.4
2,Cc1cc(CN2CCN(C(=O)NCc3ccc(C)s3)CC2)on1,-2.93
3,CCc1noc(CN2CCC(c3ccnn3CCO)CC2)n1,-5.37
4,CC(C)c1noc(CN2CCC(c3ccnn3CCO)CC2)n1,-3.73
5,O=C(CCCc1nnc(-c2ccccc2)o1)N1CCN(C2CC2)CC1,0.0439
6,COc1ccccc1CNC(=O)N1CCN(Cc2cc(C)on2)CC1,-2.55
7,NC(=O)C1CCN(C(=O)CCCc2nnc(-c3ccccc3)o2)C1 (configuration not stated),-0.453
8,c1ccc(-c2nc(CN3CCCC3Cn3cncn3)co2)cc1 (configuration not stated),-7.46
9,Clc1ccc(-c2nc(CN3CCCC3Cn3cncn3)co2)cc1 (configuration not stated),-1.1
10,Cc1ccc(-c2nc(CN3CCCC3Cn3cncn3)co2)cc1 (configuration not stated),1.81
11,CC(O)CN1CCN(C(=O)c2cccn2Cc2ccccc2)CC1 (configuration not stated),-1.63
12,O=C(CCCc1nc(-c2ccccc2)no1)N1CCN(CCO)CC1,17.6
13,CCC(O)CN1CCN(C(=O)c2cccc(CC#N)c2)CC1 (configuration not stated),1.07
14,CN(C)c1ncccc1CNC(=O)N1CCCC1CN1CCCC1 (configuration not stated),24.9
15,COc1ccc(-c2nc(CN3CCc4cnc(C)nc4C3)no2)cc1,-6.23
16,COCCc1noc(CN(C)C2CCCN(c3cccnn3)C2)n1 (configuration not stated),22.9
17,CC(C)c1ncc2c(n1)CN(Cc1noc(-c3ccccc3)n1)CC2,0.861
18,CC(NC(=O)c1cccs1)C(=O)NCc1ccccn1 (configuration not stated),-2.68
19,CCn1cnnc1CNC(=O)NC(c1cccs1)C1CCCC1 (configuration not stated),19.6
20,COc1ncccc1CNC(=O)N1CCCC1c1ccsc1 (configuration not stated),-0.312
21,Cc1ncsc1C(=O)NC1CCN(CCC#N)CC1,16.5
22,O=C(NCc1cccnc1N1CCCCC1)c1cccs1,-3.28
23,Cc1ncsc1C(=O)NC1CCN(CCCC#N)CC1,-1.22
24,Cc1cc(NC(=O)CN2CCc3cncnc3C2)on1,3.49

row,SMILES,cytotoxicity at 70.5 h [%]
1,Cc1nc(C)n(CC2CCCN2CC(=O)NC2CCOCC2)n1 (configuration not stated),2.61
2,CCc1nnc(CN2CCN(CC(O)c3ccccc3)CC2)o1 (configuration not stated),-1.5
3,Cc1cc(C)n(CC2CCCCN2CC(=O)NC2CCOCC2)n1 (configuration not stated),18.3
4,O=C(c1cc2ccccc2[nH]1)N1CCCCC1Cn1cccn1 (configuration not stated),-1.58
5,Cc1cc(C)n(C2CN(CC(O)c3ccc(C(F)(F)F)cc3)C2)n1 (configuration not stated),-4.01
6,Cc1ncsc1C(=O)NC1CCN(Cc2ccc(C(F)(F)F)cc2)CC1,26.5
7,CCOCC(O)CN1CCN(C(=O)c2ccc(N(C)C)nn2)CC1 (configuration not stated),24.3
8,CC(c1c(F)cccc1F)N1CCN(Cc2nccn2C)CC1 (configuration not stated),24.5
9,Cn1c(C2CC2)nc2c1CCN(CC(=O)Nc1ccncc1)C2,4.27
10,CCN(Cc1ccc2c(c1)OCO2)C(=O)NC(C)Cn1ccnc1 (configuration not stated),1.66
11,CCc1nc(CN2CCCN(C(=O)CC(F)(F)F)CC2)cs1,1.28
12,Cn1c(C2CC2)nc2c1CCN(CCOc1ccccc1C#N)C2,23.9
13,COc1ncccc1NC(=O)C1CC1,-1.48
14,CNC(=O)CN1CCC(NC(=O)Cc2ccc3c(c2)OCCO3)CC1,0.523
15,Cc1ccccc1C(=O)NCc1ccnc(N(C)C)c1,0.094
16,CS(=O)(=O)N1CCC(C(=O)NCCNc2ncccn2)CC1,-19.2
17,COc1ncccc1NC(=O)NC1CCOc2ccccc21 (configuration not stated),-14.2
18,O=C(c1cc(C2CC2)[nH]n1)N1CCN(Cc2ccsc2)CC1,22
19,COc1cccc(C(=O)NS(=O)(=O)c2cccc(C#N)c2)c1OC,-13.8
20,Cc1ccc(C(=O)N2CCN(Cc3nc(C(C)C)no3)CC2)c(=O)[nH]1,1.28
21,CC(NC(=O)Cc1cccs1)c1nnc2n1CCCCC2 (configuration not stated),-23.9
22,O=C1NCCN1C1CCCN(Cc2coc(-c3ccc(F)cc3)n2)C1 (configuration not stated),31
23,Cc1cnn(CC2CN(Cc3nccn3C)CCO2)c1 (configuration not stated),-10.6
24,Cc1nnc2n1CCN(Cc1csc(-c3ccc(F)cc3)n1)C2,-12.1

row,SMILES,cytotoxicity at 70.5 h [%]
1,c1ccc2oc(N3CCCCC3Cn3cncn3)nc2c1 (configuration not stated),25.6
2,Cc1ccc(NC2CCN(C(=O)CCc3ccco3)CC2)nn1,-9.84
3,CC(C)c1ncc2c(n1)CN(Cc1nc(-c3ccoc3)no1)CC2,-16.7
4,O=C(CN1CC(n2cccn2)C1)NCCCc1ccccc1,-8.01
5,CC(=O)Nc1nc(CN2CCn3c(nnc3C3CC3)C2)cs1,-7.7
6,CC1CN(CC(=O)Nc2cccnc2)CCN1c1nccs1 (configuration not stated),-12.4
7,Cc1cc(NC(=O)CN2CCN(c3nccs3)C(C)C2)n(C)n1 (configuration not stated),-7.64
8,Cc1nc(C)n(CC2CCCN(CCOc3cccc(C#N)c3)C2)n1 (configuration not stated),40.4
9,COc1ccccc1N1CCC(CNCc2cccc(C#N)c2)C1 (configuration not stated),35.6
10,CC(C)c1nc(C2CCCN(C(=O)CCn3ccnc3)C2)no1 (configuration not stated),13.6
11,Cc1noc(CN(Cc2ccc3c(c2)OCO3)Cc2ccc(C)o2)n1,-15.7
12,COc1ccccc1C1(C(=O)NCCN2CCOCC2)CCOCC1,-17.1
13,Cc1cnn(C2CCCN(C(=O)CCc3nccs3)C2)c1 (configuration not stated),17.1
14,CSC(C)C(=O)N1CCCN(Cc2cnn(C(C)C)c2)CC1 (configuration not stated),-12
15,Cc1cnn(C2CCCN(C(=O)CCCNc3ncccn3)C2)c1 (configuration not stated),-14.5
16,Cc1ccc(N2CCCN(C(=O)CC3CCCO3)CC2)nn1 (configuration not stated),-18.7
17,COc1ccccc1N1CCC(CNCc2cccc(OC)c2OC)C1 (configuration not stated),13.4
18,CC(C)c1nc(C2CCCN(C(=O)CCCn3cncn3)C2)no1 (configuration not stated),-16
19,Cc1nnc(CN2CCC(N(C)Cc3nnc(C4CC4)n3C)C2)o1 (configuration not stated),-21.8
20,Cc1cnn(CC2CCCCN2Cc2nnc(-c3ccco3)o2)c1 (configuration not stated),-4.33
21,Cc1nn(CC(C)C)c(N(C)C)c1CNCc1cccnc1N(C)C,-13.5
22,CC(C(=O)Nc1ccc(N2CCCC2)nc1)n1cncn1 (configuration not stated),-12.1
23,Cn1cnc(S(=O)(=O)NCCCN2CCOCC2)c1Cl,-14.4
24,Cn1cnc(S(=O)(=O)NCCCN2CCCCCC2)c1Cl,-6.45

row,SMILES,cytotoxicity at 70.5 h [%]
1,Cc1nnc(C(C)N2CCN(Cc3ccc4c(c3)OCO4)CC2)o1 (configuration not stated),16.9
2,Cc1nnc(C(C)N2CCN(Cc3ccc(C#N)cc3)CC2)o1 (configuration not stated),-6.02
3,Cc1cccc(-c2ccc(C(=O)NCCN(C)C3CC3)c(=O)[nH]2)c1,-34.3
4,COc1cc(CNC(=O)CNc2cc(Cl)ccc2OC)ccn1,3.6
5,N#Cc1ccc(N2CCCN(C(=O)CC3CCCO3)CC2)cc1 (configuration not stated),-15.2
6,Cc1nc(N2CCN(C(=O)c3ccsc3)CC2)c2cnn(C)c2n1,-10.3
7,Cc1nn(C)c(Cl)c1C1CCCN1C(=O)c1ccc2c(c1)OCO2 (configuration not stated),-16.9
8,COc1ccc(C(=O)NS(=O)(=O)c2ccc(C#N)cc2C(F)(F)F)cc1,-16.9
9,COc1ccc(CNC(C)c2ccc3[nH]c(=O)[nH]c3c2)cc1 (configuration not stated),-2.85
10,Cc1cc(C(=O)O)cc(S(=O)(=O)Nc2ccc3c(c2)OCO3)c1C,20.2
11,Cc1ccc(S(=O)(=O)N2CCOc3ccccc32)cc1C(N)=O,14
12,CCc1ccc(O)c(C(=O)NC2CCN(C(=O)OC)CC2)c1,-10.9
13,CN1CCOC(CNC(=O)Cc2ccccc2F)C1 (configuration not stated),-8.56
14,CN(Cc1ccccc1)CC(O)Cn1cnc2c(cnn2C)c1=O (configuration not stated),-5.87
15,N#Cc1cccc(S(=O)(=O)NC(=O)COc2ccc3c(c2)CCC3)c1,4.27
16,Cc1cnn(C2CCCN(C(=O)c3sccc3C#N)C2)c1 (configuration not stated),28.7
17,CC(C)(C)c1nnc(CN2CCOC(Cn3cncn3)C2)o1 (configuration not stated),-1.42
18,Cc1ccccc1-c1noc(CN2CCn3c(nnc3C3CC3)C2)n1,20.5
19,Cc1ccc2oc(C(=O)N3CCCC(c4noc(C)n4)C3)cc2n1 (configuration not stated),-5.41
20,Cc1nnc2n1CCN(C(C(=O)NC1CC1)c1ccccc1)C2 (configuration not stated),-10.2
21,NC(=O)c1ccc(S(=O)(=O)NC(=O)COc2ccc3c(c2)CCC3)cc1,-6.16
